Results published in article PMC9257625 (RSC Chemical Biology, 2022).
Positions of bridges follow the written chain, without caps; N, C: chain ends. Non-standard residues stand in square brackets, D forms with d. Residues, ends and D or L forms follow the SMILES beside them. S5 = C=CCCC[C@](C)(N)C(=O)O

What was measured:
[1] = Circular dichroism spectroscopy, percent helicity; type: physicochemical; conditions: CD θ220, 10 mM phosphate buffer pH 7.4, 50 μM peptide
proteinase K = proteinase K (Parengyodontium album, UniProt P06873); assay: Protease stability assay, proteinase K; type: in vitro ADME, fungal
pepsin = pepsin (Sus scrofa, UniProt P00791); assay: Protease stability assay, pepsin; type: in vitro ADME, porcine; conditions: acidic pH
Sequence of pepsin (P00791 60-385): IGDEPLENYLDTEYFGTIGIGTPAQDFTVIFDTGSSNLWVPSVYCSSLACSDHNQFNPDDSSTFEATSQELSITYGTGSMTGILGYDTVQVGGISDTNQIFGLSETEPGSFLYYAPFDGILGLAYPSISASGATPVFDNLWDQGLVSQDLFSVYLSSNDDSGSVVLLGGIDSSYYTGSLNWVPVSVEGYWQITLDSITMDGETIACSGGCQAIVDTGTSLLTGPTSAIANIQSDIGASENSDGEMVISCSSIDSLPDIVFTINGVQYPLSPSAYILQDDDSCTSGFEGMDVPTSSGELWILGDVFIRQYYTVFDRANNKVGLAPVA

Sequence of proteinase K (P06873 106-384): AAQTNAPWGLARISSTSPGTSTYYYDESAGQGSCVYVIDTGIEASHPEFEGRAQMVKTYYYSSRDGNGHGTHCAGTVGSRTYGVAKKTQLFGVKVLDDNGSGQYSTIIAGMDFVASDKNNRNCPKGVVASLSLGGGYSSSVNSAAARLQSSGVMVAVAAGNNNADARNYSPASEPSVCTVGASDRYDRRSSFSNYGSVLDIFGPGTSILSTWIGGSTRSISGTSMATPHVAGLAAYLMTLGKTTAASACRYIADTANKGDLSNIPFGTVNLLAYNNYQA

| SMILES | Percent helicity [1] | Cleavage by / resistance to proteinase K (in words) (proteinase K) | Cleavage by pepsin (in words) (pepsin) |
| --- | --- | --- | --- |
| CC(=O)N[C@@H](CC(C)C)C(=O)N[C@H](C(=O)N[C@@H](Cc1ccccc1)C(=O)N[C@@]1(C)CCCC=CCCC[C@@](C)(C(=O)N[C@@H](CCC(N)=O)C(=O)N[C@@H](CC(C)C)C(=O)N[C@H](C(=O)N[C@@H](CO)C(N)=O)[C@@H](C)O)NC(=O)[C@H](Cc2c[nH]c3ccccc23)NC(=O)[C@H](Cc2ccc(O)cc2)NC(=O)[C@H](CCC(=O)O)NC1=O)[C@@H](C)O [Peptide 2a] (Ac-LTF[S5]EYW[S5]QLTS-NH2; staple 4-8) | ~60% | – | – |
| CC(=O)N[C@@H](CC(C)C)C(=O)N[C@H](C(=O)N[C@@H](Cc1ccccc1)C(=O)N[C@H]1CCCn2cc(nn2)-c2cccc(c2)-c2cn(nn2)CCC[C@@H](C(=O)N[C@@H](CO)C(N)=O)NC(=O)[C@H](CC(C)C)NC(=O)[C@H](CCC(N)=O)NC(=O)[C@H](C)NC(=O)[C@H](Cc2c[nH]c3ccccc23)NC(=O)[C@H](Cc2ccc(O)cc2)NC(=O)[C@H](CCC(=O)O)NC1=O)[C@@H](C)O [Peptide 4a] | 27% | partially vulnerable to cleavage | completely cleaved |
